Experimental data from PMC5077133, “Towards Development of Small Molecule Lipid II Inhibitors as Novel Antibiotics” (PLoS ONE, 2016).

Experiments:
E. faecium EF1509 (VRE) = test: Antibacterial activity (MIC, broth dilution); type: cell-based; details: CLSI, in µg/mL
Procedure: (§1) Determination of the Minimal Inhibitory Concentrations (MIC) by dilution was carried out by broth dilution according to CLSI standards.

E. faecium F118 (VRE) = test: Antibacterial activity (MIC, broth dilution); type: cell-based; details: CLSI, in µg/mL
Procedure: as §1

P. aeruginosa ATCC 27853 = test: Antibacterial activity (MIC, broth dilution); type: cell-based; details: CLSI
Procedure: as §1

[1] = Cytotoxicity against mammalian cells (MTS assay); type: cell-based; details: human, HeLa cells (ATCC CCL-2.2)
Summary of the method: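 HeLa cells exposed 72 h in RPMI1640 to compounds at 64 to 0.125 μg/ml, in triplicate. Viability measured as mitochondrial activity by MTS, and CC50 taken against a standard curve of serially diluted untreated cells.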

[2] = Solubility in water (laser nephelometry); type: physicochemical; details: n=3
Procedure: Solubility in water was determined using a NEPHELOstar^plus laser nephelometer (BMG Labtech, Cary, NC) at a wavelength of 635 nm and bottom read optics using a 96-well plate format. A solution of 6jc48-1 was prepared at a concentration of 2.5 mg/ml in DMSO. The DMSO solution (10 μl) was added to wells containing water (290 μl) for a final concentration of 125 μg/ml. The plate was incubated at room temperature for two hours prior to reading in the nephalometer. All samples were run in triplicate. Control samples (DMSO with no analyte) were prepared and run in parallel.

[3] = Plasma protein binding (Transil); type: in vitro ADME; details: human, TRANSIL XL PPB plates (human plasma protein beads)
Procedure: Human plasma protein binding was determined using TRANSIL^XL PPB plates (Sovicell, Leipzig, Germany). The compound 6jc48-1 (15 ul, 32% DMSO stock solution) was added to each well of a column (8 wells total) on a room temperature equilibrated plate. The plate was incubated for twelve minutes on a shaker at 1000 rpm then centrifuged for 10 minutes at 750 × g to sediment the beads from the suspension. Aliquots (100 ul) were transferred from the supernatants to 96-well plate for MS analysis. Plasma protein binding data analysis was completed by using the supplied spreadsheet from the manufacturer (Sovicell, User Guide TRANSIL PPB binding kit V2.01, 2013).

[4] = Plasma stability (50% serum, LC/MS/MS); type: in vitro ADME
Procedure: Samples were taken after 2 min, 5min, 15min, 30min, 1h, 2h and 19h. Stability of compound was quantified by LC/MS/MS. Experiments were carried out by Pharmaron, Inc., (Beijing, China).

[5] = system: Enterococcus faecalis EF1509; test: Murine peritoneal sepsis model; type: in vivo, C57BL/6J mice; details: 6jc48-1 100 mg/kg, ampicillin 300 mg/kg
Description: Care of the mice met or exceeded the standards set forth by the National Institute of Health Guide for the care and use of laboratory animals and the AVMA panel on Euthanasia. All procedures in this study have been approved by the Institutional Animal Care and Use Committee (IACUC) at the University of Maryland Baltimore School of Medicine (Protocol number 02122005). Adult C57BL/6J mice (~18 grams, 8–10 weeks old) were used for all experiments. Mice were obtained from the Jackson Laboratory (Bar Harbor, Maine, USA) and housed in the IHV SPC animal core facility. Mice were fed standard chow (Harlan Laboratories) and water ad libitum. […] Infected animals (n = 5) were subsequently treated by intraperitoneal injection 30 min post-infection with 100 mg/kg of compound in 300 μL sterile saline solution, 5% Tween 80, 10% DMSO (V/V), ampicillin (300mg/kg), or vehicle (sterile saline solution, 5% Tween 80, 10% DMSO (V/V)) as positive and negative controls, respectively. Animals were closely observed during a period of 24 h and mice that show signs of severe sepsis were humanely euthanized. Mice were anesthetized by intraperitoneal injection of ketamine (80-100mg/kg) and xylazine (10–15 mg/kg). Once sedated, blood was collected by cardiac puncture. Immediately after blood collection the mice were euthanized by cervical dislocation. Spleens were harvested aseptically, weighed and homogenized in 500 μl of sterile saline solution using an IKA T10 basic disperser (IKA, Wilmington NC). Spleen homogenates were serially diluted and plated onto BHI agar plates. Bacterial counts were determined following 24 h incubation at 37°C and expressed as CFU per gram for spleen.
We established a murine model for sepsis to evaluate the efficacy of 6jc48-1 as an antibiotic agent in vivo. […] Based on the data obtained in the pharmacokinetic analysis, mice (n = 5) were inoculated intraperitoneally with E. faecalis EF1509 (~5 x 10^8 CFU/ animal) and treated after 30 min with compound 6jc48-1 (100 mg/kg IP), ampicillin (300 mg/kg IP) or vehicle. Animals were monitored for survival and after 24 h spleen samples were collected and analyzed for the presence of bacteria. Bacterial counts were determined by plating serial dilutions on BHI agar plates and compared to control treatment with ampicillin as measures of efficacy (Fig 5).

[6] = Tolerability in mice (maximum tolerated dose, clinical observations); details: C57BL/6J, mouse, in vivo, ip, 100 mg/kg, intraperitoneal, read-out: Dose safely administered intraperitoneally (preliminary maximum tolerated dose studies)

CN(C)c1ccc(/C=C/c2cc(-c3ccc(Br)cc3)cc(-c3ccc(Br)cc3)[o+]2)cc1 [6jc48-1]
Antibacterial activity (MIC) E. faecium EF1509 (VRE) (E. faecium EF1509 (VRE)): 2.828 | Antibacterial activity (MIC) E. faecium F118 (VRE) (E. faecium F118 (VRE)): 5.657 | Antibacterial activity (MIC) P. aeruginosa ATCC 27853 (P. aeruginosa ATCC 27853): ≥ 64 µg/mL | CC50 at 72 h [1]: > 100 µg/mL | solubility at 2 h [2]: > 50 µg/mL | fraction unbound at 12 min [3]: 0.11 | Stability in serum ([4]; after 2 hours): fully stable after 2 hours in serum | Compound remaining in serum ([4]; after 19h, 10 μg/ml): 46% | Bacterial counts in spleen ([5]; IP treatment 30 min post-infection, spleen collected after 24 h): significant bacterial clearance | Survival of infected animals ([5]; n = 5, IP treatment 30 min post-infection, length of the experiment (24 h)): Four out of five | MTD [6]: ≥ 100 mg/kg
